Experiment [1] deals with MV4:11 human cancer cell lines. As to the kind of experiment: Anti-proliferative activity, CellTiter-Glo viability assay, 7 day protocol. It is filed as cell-based. The conditions noted are these: MV4:11 cells, 7 day incubation, read-out: GI50 on cellular proliferation of MV4:11 human cancer cell lines. The method in brief: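 MV4:11 cells seeded at 3600 cells/ml and exposed to compounds for 7 days, 0.1% DMSO final. Viability measured by CellTiter-Glo luminescence. GI50 from three biological replicates, each in technical triplicate, given as mean ± S.E.M.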
Background: In ATP-based viability assays light output follows the ATP content of the culture.

Another experiment deals with WDR5 (Homo sapiens (Human), UniProt P61964). Briefly: TR-FRET binding assay (displacement of 10mer-Thr-FAM probe from WDR5). Background: In TR-FRET formats the signal depends on donor and acceptor labels being close together.
The mark [2] stands for this setting: read-out: Ki for Inhibition of WDR5 by TR-FRET assay, TR-FRET, 10mer-Thr-FAM probe, WDR5-His tag 2 nM, pH 7.0.
The mark [3] stands for this setting: read-out: Ki for Inhibition of WDR5 by TR-FRET assay.

Where two headings read alike, the source gives them in different places.

Usually Ki stands for a measure of affinity in units of concentration, obtained from inhibition or displacement.

On to `Cc1cc([C@@H](NC(=O)c2cc(Cn3ccn(C)c3=N)cc(-c3cccnc3C(F)(F)F)c2F)C2CC2)ccc1F` [Example 131, (S)—N-(Cyclopropyl(4-fluoro-3-methylphenyl)methyl)-2-fluoro-5-((2-imino-3-methyl-2,3-dihydro-1H-imidazol-1-yl)methyl)-3-(2-(trifluoromethyl)pyridin-3-yl)benzamide], for which the GI50 in experiment [1] (Homo sapiens, MV4-11, 168 h) stood at 140 nM. For the same molecule, the Ki at WDR5 (setting [2]) was below 0.1 nM.
On to `Cc1ccnc([C@@H](NC(=O)c2cc(Cn3ccn(C)c3=N)cc(-c3cccnc3C(F)(F)F)c2F)C2CC2)c1` [Example 132, (S)—N-(Cyclopropyl(4-methylpyridin-2-yl)methyl)-2-fluoro-5-((2-imino-3-methyl-2,3-dihydro-1H-imidazol-1-yl)methyl)-3-(2-(trifluoromethyl)pyridin-3-yl)benzamide], for which the GI50 in experiment [1] (Homo sapiens, MV4-11, 168 h) amounted to 610 nM. Besides, the Ki at WDR5 (setting [2]) is 0.13 nM.
Turning to `Cc1cc([C@@H](NC(=O)c2cc(Cn3ccn(C)c3=N)cc(C3CC3)c2)C2CC2)ccc1F` [Example 139, (S)-3-Cyclopropyl-N-(cyclopropyl(4-fluoro-3-methylphenyl)methyl)-5-((2-imino-3-methyl-2,3-dihydro-1H-imidazol-1-yl)methyl)benzamide], the GI50 in experiment [1] (Homo sapiens, MV4-11, 168 h) amounted to 730 nM. At WDR5 (setting [3]), the Ki was determined as 0.18 nM.
Consider `Cc1cc([C@@H](NC(=O)c2cc(Cn3ccn(C4CC4)c3=N)cc(-c3ccc(F)cc3Cl)c2)C2CC2)ccc1F` [Example 141, (S)-2′-Chloro-N-(cyclopropyl(4-fluoro-3-methylphenyl)methyl)-5-((3-cyclopropyl-2-imino-2,3-dihydro-1H-imidazol-1-yl)methyl)-4′-fluoro-[1,1′-biphenyl]-3-carboxamide], for which the GI50 in experiment [1] (Homo sapiens, MV4-11, 168 h) is below 100 nM. For the same molecule, at WDR5 (setting [2]), the Ki was below 0.1 nM.
As for `Cc1cc([C@@H](NC(=O)c2cc(Cn3ccn(C4CC4)c3=N)cc(-c3cn(C)nc3C(F)(F)F)c2)C2CC2)ccc1F` [Example 142, (S)—N-(Cyclopropyl(4-fluoro-3-methylphenyl)methyl)-3-((3-cyclopropyl-2-imino-2,3-dihydro-1H-imidazol-1-yl)methyl)-5-(1-methyl-3-(trifluoromethyl)-1H-pyrazol-4-yl)benzamide], the GI50 in experiment [1] (Homo sapiens, MV4-11, 168 h) was below 100 nM. Besides, the inhibition constant (Ki) on WDR5 (setting [2]) was below 0.1 nM.
Regarding `Cc1cc([C@@H](NC(=O)c2cc(CN3CCN(C)C3=N)cc(-c3cccnc3C(F)(F)F)c2)C2CC2)ccc1F` [Example 143, (S)—N-(Cyclopropyl(4-fluoro-3-methylphenyl)methyl)-3-((2-imino-3-methylimidazolidin-1-yl)methyl)-5-(2-(trifluoromethyl)pyridin-3-yl)benzamide], the GI50 in experiment [1] (Homo sapiens, MV4-11, 168 h) was 170 nM. Also, the Ki on WDR5 (setting [3]) is below 0.1 nM.
Consider `Cc1cc(CNC(=O)c2cc(Cn3ccn(C)c3=N)cc(OC(F)(F)F)c2)ccc1Cl` [Example 147, N-(4-Chloro-3-methylbenzyl)-3-((2-imino-3-methyl-2,3-dihydro-1H-imidazol-1-yl)methyl)-5-(trifluoromethoxy)benzamide], for which the GI50 in experiment [1] (Homo sapiens, MV4-11, 168 h) came to 840 nM. Also, the Ki on WDR5 (setting [2]) turned out to be 0.37 nM.
For `Cc1cc([C@@H](NC(=O)c2cc(Cn3ccn(C)c3=N)cc(-c3ccc(F)cc3C(F)F)c2)C2CC2)ccc1F` [Example 154, (S)—N-(Cyclopropyl(4-fluoro-3-methylphenyl)methyl)-2′-(difluoromethyl)-4′-fluoro-5-((2-imino-3-methyl-2,3-dihydro-1H-imidazol-1-yl)methyl)-[1,1′-biphenyl]-3-carboxamide], in experiment [1] (Homo sapiens, MV4-11, 168 h), the GI50 worked out at 120 nM. Further, the Ki on WDR5 (setting [2]) is below 0.1 nM.
As for `Cc1cc([C@@H](NC(=O)c2cc(Cn3ccn(C4CC4)c3=N)cc(-c3ccc(F)cc3OC(F)F)c2)C2CC2)ccc1F` [Example 156, (S)—N-(cyclopropyl(4-fluoro-3-methylphenyl)methyl)-5-((3-cyclopropyl-2-imino-2,3-dihydro-1H-imidazol-1-yl)methyl)-2′-(difluoromethoxy)-4′-fluoro-[1,1′-biphenyl]-3-carboxamide], the GI50 in experiment [1] (Homo sapiens, MV4-11, 168 h) was 470 nM. Moreover, the Ki on WDR5 (setting [2]) is below 0.1 nM.
Consider `Cn1cc(-c2cc(Cn3ccn(C)c3=N)cc(C(=O)N[C@H](c3ccc(Cl)c(Cl)c3)C3CC3)c2)c(C(F)(F)F)n1` [Example 157, (S)—N-(Cyclopropyl(3,4-dichlorophenyl)methyl)-3-((2-imino-3-methyl-2,3-dihydro-1H-imidazol-1-yl)methyl)-5-(1-methyl-3-(trifluoromethyl)-1H-pyrazol-4-yl)benzamide], for which, in experiment [1], the GI50 is 100 nM. Moreover, the Ki at WDR5 (setting [2]) is below 0.1 nM.
As for `Cc1cc([C@@H](NC(=O)c2cc(Cn3ccn(C4CC4)c3=N)cc(-c3ccc(F)cc3C(F)F)c2)C2CC2)ccc1F` [Example 158, (S)—N-(Cyclopropyl(4-fluoro-3-methylphenyl)methyl)-5-((3-cyclopropyl-2-imino-2,3-dihydro-1H-imidazol-1-yl)methyl)-2′-(difluoromethyl)-4′-fluoro-[1,1′-biphenyl]-3-carboxamide], in experiment [1] (Homo sapiens, MV4-11, 168 h), the GI50 came out at 170 nM. Also, at WDR5 (setting [2]), the Ki was below 0.1 nM.
As to `Cn1cc(-c2cc(Cn3ccn(C4CC4)c3=N)cc(C(=O)N[C@H](c3ccc(Cl)c(Cl)c3)C3CC3)c2)c(C(F)(F)F)n1` [Example 159, (S)—N-(cyclopropyl(3,4-dichlorophenyl)methyl)-3-((3-cyclopropyl-2-imino-2,3-dihydro-1H-imidazol-1-yl)methyl)-5-(1-methyl-3-(trifluoromethyl)-1H-pyrazol-4-yl)benzamide], the GI50 in experiment [1] (Homo sapiens, MV4-11, 168 h) came out at 190 nM. For the same molecule, the Ki at WDR5 (setting [2]) was below 0.1 nM.
For the molecule `CCn1cc(-c2cc(Cn3ccn(C4CC4)c3=N)cc(C(=O)N[C@H](c3ccc(F)c(C)c3)C3CC3)c2)c(C(F)(F)F)n1` [Example 160, (S)—N-(Cyclopropyl(4-fluoro-3-methylphenyl)methyl)-3-((3-cyclopropyl-2-imino-2,3-dihydro-1H-imidazol-1-yl)methyl)-5-(1-ethyl-3-(trifluoromethyl)-1H-pyrazol-4-yl)benzamide], the GI50 in experiment [1] (Homo sapiens, MV4-11, 168 h) is below 100 nM. Also, the Ki on WDR5 (setting [2]) was below 0.1 nM.
On to `CCn1cc(-c2cc(Cn3ccn(C)c3=N)cc(C(=O)N[C@H](c3ccc(Cl)c(Cl)c3)C3CC3)c2)c(C(F)(F)F)n1` [Example 161, (S)—N-(Cyclopropyl(3,4-dichlorophenyl)methyl)-3-(1-ethyl-3-(trifluoromethyl)-1H-pyrazol-4-yl)-5-((2-imino-3-methyl-2,3-dihydro-1H-imidazol-1-yl)methyl)benzamide], for which the GI50 in experiment [1] (Homo sapiens, MV4-11, 168 h) is below 100 nM. Also, at WDR5 (setting [3]), the Ki is below 0.1 nM.
In the case of `CCn1cc(-c2cc(Cn3ccn(C4CC4)c3=N)cc(C(=O)N[C@H](c3ccc(Cl)c(Cl)c3)C3CC3)c2)c(C(F)(F)F)n1` [Example 162, (S)—N-(Cyclopropyl(3,4-dichlorophenyl)methyl)-3-((3-cyclopropyl-2-imino-2,3-dihydro-1H-imidazol-1-yl)methyl)-5-(1-ethyl-3-(trifluoromethyl)-1H-pyrazol-4-yl)benzamide], in experiment [1] (Homo sapiens, MV4-11, 168 h), the GI50 came to 130 nM. The Ki on WDR5 (setting [2]) is below 0.1 nM.
For the molecule `Cc1cc([C@@H](NC(=O)c2cc(Cn3ccn(C)c3=N)cc(C3CCC3)c2)C2CC2)ccc1F` [Example 166, (S)-3-Cyclobutyl-N-(cyclopropyl(4-fluoro-3-methylphenyl)methyl)-5-((2-imino-3-methyl-2,3-dihydro-1H-imidazol-1-yl)methyl)benzamide], in experiment [1] (Homo sapiens, MV4-11, 168 h), the GI50 is 360 nM. In addition, the Ki on WDR5 (setting [2]) was below 0.1 nM.
As to `Cc1cc([C@H](C)NC(=O)c2cc(Cn3ccn(C)c3=N)cc(-c3ccc(F)cc3C(F)(F)F)c2F)ccc1F` [Example 172, (S)-2,4′-Difluoro-N-(1-(4-fluoro-3-methylphenyl)ethyl)-5-((2-imino-3-methyl-2,3-dihydro-1H-imidazol-1-yl)methyl)-2′-(trifluoromethyl)-[1,1′-biphenyl]-3-carboxamide], the GI50 in experiment [1] (Homo sapiens, MV4-11, 168 h) amounted to 160 nM. Further, the Ki at WDR5 is below 0.1 nM.
In the case of `Cc1cc([C@@H](NC(=O)c2cc(Cn3ccn(C)c3=N)cc(-c3ccc(F)cc3Cl)c2)C2CC2)ncc1F` [Example 174, (S)-2′-Chloro-N-(cyclopropyl(5-fluoro-4-methylpyridin-2-yl)methyl)-4′-fluoro-5-((2-imino-3-methyl-2,3-dihydro-1H-imidazol-1-yl)methyl)-[1,1′-biphenyl]-3-carboxamide], the GI50 in experiment [1] (Homo sapiens, MV4-11, 168 h) was below 100 nM. The inhibition constant Ki on WDR5 (setting [2]) was below 0.1 nM.
Turning to `Cc1cc([C@@H](NC(=O)c2cc(Cn3ccn(C)c3=N)cc(OC(F)(F)F)c2)C2CC2)ccc1F` [Example 179, (S)—N-(Cyclopropyl(4=fluoro-3-methylphenyl)methyl)-3-((2-imino-3-methyl-2,3-dihydro-1H-imidazol-1-yl)methyl)-5-(trifluoromethoxy)benzamide], in experiment [1] (Homo sapiens, MV4-11, 168 h), the GI50 stood at 230 nM. Besides, the Ki on WDR5 (setting [2]) is below 0.1 nM.
Regarding `Cc1cc([C@@H](NC(=O)c2cc(Cn3ccn(C)c3=N)cc(-c3ccc(F)cc3C#N)c2)C2CC2)ccc1F` [Example 185, (S)-2′-Cyano-N-(cyclopropyl(4-fluoro-3-methylphenyl)methyl)-4′-fluoro-5-((2-imino-3-methyl-2,3-dihydro-1H-imidazol-1-yl)methyl)-[1,1′-biphenyl]-3-carboxamide], in experiment [1] (Homo sapiens, MV4-11, 168 h), the GI50 was found to be 610 nM. The Ki at WDR5 (setting [2]) is below 0.1 nM.
On to `Cn1ccn(Cc2cc(C(=O)NC3(c4cccc(Br)c4)CCC3)c(F)c(-c3ccc(F)cc3C(F)(F)F)c2)c1=N` [Example 186, N-(1-(3-Bromophenyl)cyclobutyl)-2,4′-difluoro-5-((2-imino-3-methyl-2,3-dihydro-1H-imidazol-1-yl)methyl)-2′-(trifluoromethyl)-[1,1′-biphenyl]-3-carboxamide], for which, in experiment [1] (Homo sapiens, MV4-11, 168 h), the GI50 was determined as 580 nM. Moreover, the Ki at WDR5 (setting [2]) was below 0.1 nM.
Take `Cn1ccn(Cc2cc(C(=O)N[C@H](c3ccc(Cl)c(Cl)c3)C3CC3)cc(-c3ncc(F)cc3C(F)(F)F)c2)c1=N` [Example 187]: the GI50 in experiment [1] (Homo sapiens, MV4-11, 168 h) is 440 nM. Further, the Ki at WDR5 (setting [2]) was below 0.1 nM.
